From PMC10574351, “First-Row Transition Metal Complexes Incorporating the 2-(2′-pyridyl)quinoxaline Ligand (pqx), as Potent Inflammatory Mediators: Cytotoxic Properties and Biological Activities against the Platelet-Activating Factor (PAF) and Thrombin” (Molecules, 2023)

Legend:
[1] = system: dithiothreitol-insensitive PAF choline phosphotransferase (PAF-CPT); assay: PAF-CPT activity assay on leukocyte homogenate; type: biochemical; conditions: rabbit leukocyte homogenate; Figure 8
Experimental: (§1) The experiment on the inhibitory effect of each compound of interest against the washed rabbit platelets (WRPs) aggregation was carried out as per the already described method. The platelets were from male New Zealand white rabbits (about 20), individually housed in stainless steel cages in an air-conditioned room (19 ± 1 °C, 55 ± 5% humidity on a 12/12 h artificial light/dark cycle). Blood samples were drawn from the main ear artery. Microliters of PAF in a final concentration of about 10^–10 M were added to the cuvette of the aggregometer, and the height of the platelet aggregation was monitored. […] Dithiothreitol-insensitive PAF choline phosphotransferase, lyso-PAF:acetyl-CoA acetyltransferase and PAF-acetylhydrolase activity assays were performed on the homogenates of rabbit leukocytes while the activity of lipoprotein-associated phospholipase A2 was assessed on plasma as previously described. […] All results were expressed as mean ± standard deviation (SD). […] Data were analyzed using a statistical software package (SPSS for Windows, 16.0, 2007, SPSS Inc., Chicago, IL, USA) and Microsoft Excel 2007. […]

[2] = system: lyso-PAF:acetyl-CoA acetyltransferase (lyso-PAF-AT); assay: Lyso PAF-AT activity assay on leukocyte homogenate; type: biochemical; conditions: rabbit leukocyte homogenate; Figure 9
Experimental: as §1
The extraction, purification, and determination of the produced in each assay PAF was carried out as previously described. […] PAF bands were scrapped off, and extracted and the amount of PAF was determined by the washed rabbit platelet aggregation assay. […]

[3] = target: T1, Lipoprotein-associated phospholipase A2 (Lp-PLA2) (Oryctolagus cuniculus, UniProt G1SE06); assay: Plasma PAF-AH (LpPLA2) activity assay; type: biochemical, rabbit; conditions: in increased concentrations, Figure 10
T1 construct: from tissue; host or cells: rabbit plasma
T1 sequence (G1SE06 22-423): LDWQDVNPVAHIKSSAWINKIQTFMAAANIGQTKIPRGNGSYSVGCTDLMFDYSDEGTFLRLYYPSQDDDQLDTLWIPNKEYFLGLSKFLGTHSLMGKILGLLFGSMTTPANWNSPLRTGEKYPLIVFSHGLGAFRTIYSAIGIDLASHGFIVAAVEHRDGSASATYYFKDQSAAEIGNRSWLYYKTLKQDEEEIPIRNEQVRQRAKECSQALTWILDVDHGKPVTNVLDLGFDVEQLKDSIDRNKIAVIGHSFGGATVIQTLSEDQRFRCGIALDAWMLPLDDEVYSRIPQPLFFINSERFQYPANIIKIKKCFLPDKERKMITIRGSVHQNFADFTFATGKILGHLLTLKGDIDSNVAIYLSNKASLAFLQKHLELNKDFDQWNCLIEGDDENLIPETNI
Experimental: The experiment on the inhibitory effect of each compound of interest against the washed rabbit platelets (WRPs) aggregation was carried out as per the already described method. The platelets were from male New Zealand white rabbits (about 20), individually housed in stainless steel cages in an air-conditioned room (19 ± 1 °C, 55 ± 5% humidity on a 12/12 h artificial light/dark cycle). Blood samples were drawn from the main ear artery. Microliters of PAF in a final concentration of about 10^–10 M were added to the cuvette of the aggregometer, and the height of the platelet aggregation was monitored. […] Dithiothreitol-insensitive PAF choline phosphotransferase, lyso-PAF:acetyl-CoA acetyltransferase and PAF-acetylhydrolase activity assays were performed on the homogenates of rabbit leukocytes while the activity of lipoprotein-associated phospholipase A2 was assessed on plasma as previously described. […] All results were expressed as mean ± standard deviation (SD). […] Data were analyzed using a statistical software package (SPSS for Windows, 16.0, 2007, SPSS Inc., Chicago, IL, USA) and Microsoft Excel 2007.
Plasma PAF-AH was determined in rabbit plasma by the trichloroacetic acid precipitation method using [3H] […] The [3H]-acetate released into the aqueous phase was measured on a liquid scintillation counter. […]

Substance | inhibition of the specific activity of PAF-CPT [1] | inhibition of the specific activity of lyso-PAF-AT [2] | inhibition of the specific activity of Lp-PLA2 [3]
[Fe(pqx)Cl2]2 [Complex 6] | inhibit, in a dose-dependent way |  | 
mer-[Cr(pqx)Cl3(H2O)] [Complex 1] |  | inhibit in a dose-dependent way | 
[Ni(pqx)Cl2]2 [Complex 7] |  | inhibit in a dose-dependent way | disables the enzymatic activity
